Source: ChEMBL document CHEMBL1129696, “5- and 7-oxa trinems: their synthesis and biological evaluation” (1996)
≈ marks a conversion by molar mass, not a printed value.

Legend:
Type in all cases: functional
[1] = test system: Bacteroides fragilis; experiment: In vitro antibacterial activity against Bacteroides fragilis 2017
[2] = test system: Clostridium perfringens; experiment: In vitro antibacterial activity against Clostridium perfringens 615
[3] = test system: Enterococcus faecalis; experiment: In vitro antibacterial activity against Enterococcus faecalis 850
[4] = test system: Escherichia coli; experiment: In vitro antibacterial activity agains Escherichia coli 1852
[5] = test system: Streptococcus pneumoniae; experiment: In vitro antibacterial activity against Streptococcus pneumoniae 3512
[6] = test system: Staphylococcus aureus; experiment: In vitro antibacterial activity against Staphylococcus aureus 853
[7] = test system: Escherichia coli; experiment: In vitro antibacterial activity against Escherichia coli 1850
[8] = test system: Escherichia coli; experiment: In vitro antibacterial activity against Escherichia coli 1850.

| Compound | MIC [1] | MIC [2] | MIC [3] | MIC [4] | MIC [5] | MIC [6] | MIC [7] | MIC [8] |
| --- | --- | --- | --- | --- | --- | --- | --- | --- |
| C[C@@H](O)[C@H]1C(=O)N2C(C(=O)[O-])=C3COCC[C@H]3[C@H]12.[K+] | 0.1 µg/mL | 2 µg/mL | 32 µg/mL | 4 µg/mL | 0.1 µg/mL | 2 µg/mL | 2 µg/mL |  |
| C[C@@H](O)[C@H]1C(=O)N2C(C(=O)[O-])=C3CCCO[C@@H]3[C@H]12.[K+] | 0.1 µg/mL | 0.06 µg/mL | 1 µg/mL | 1 µg/mL | 0.06 µg/mL | 0.5 µg/mL | 1 µg/mL |  |
| C[C@@H](O)[C@H]1C(=O)N2C(C(=O)[O-])=C3CCCC[C@@H]3[C@H]12.[K+] | 1 µg/mL | 0.1 µg/mL | 8 µg/mL | 1 µg/mL | 0.06 µg/mL | 1 µg/mL | 1 µg/mL |  |
| C[C@@H](O)[C@H]1C(=O)N2C(C(=O)[O-])=C3COCC[C@@H]3[C@H]12.[K+] | 0.2 µg/mL | 0.5 µg/mL | 8 µg/mL | 0.5 µg/mL | 0.06 µg/mL | 0.5 µg/mL | 0.5 µg/mL |  |
| C[C@@H](O)[C@H]1C(=O)N2C(C(=O)[O-])=C3CCCO[C@H]3[C@H]12.[K+] | 0.2 µg/mL | 1 µg/mL | 16 µg/mL | 4 µg/mL | 0.2 µg/mL | 1 µg/mL | 2 µg/mL |  |
| C[C@@H](O)[C@H]1C(=O)N2C(C(=O)[O-])=C3CCCC[C@H]3[C@H]12.[K+] | 0.5 µg/mL | 1 µg/mL | 16 µg/mL | 2 µg/mL | 0.5 µg/mL | 1 µg/mL |  | 2 µg/mL |
| CO[C@H]1CCC[C@H]2C1=C(C(=O)O)N1C(=O)[C@H]([C@@H](C)O)[C@@H]21 [SANFETRINEM] | 0.06 µg/mL (≈ 0.213 µM) | 0.03 µg/mL (≈ 0.107 µM) | 1 µg/mL (≈ 3.55 µM) | 0.5 µg/mL (≈ 1.78 µM) | < 0.01 µg/mL | 0.2 µg/mL (≈ 0.711 µM) | 0.5 µg/mL (≈ 1.78 µM) |  |
